In brackets after ≈: the same amount, converted by molar mass. Starred links: 1 amine or outer side, 2 acyl side, 3 side chain; linkers in the order of their positions; H or OH if unused. Non-standard residues stand in square brackets, D forms with d. Residues, ends and D or L forms follow the SMILES beside them. Ile(ψThz) = CC[C@H](C)[C@H](N[*:1])c1nc(C(=O)[*:2])cs1; LeuThz(4-CO) = CC(C)C[C@H](N[*:1])c1nc(C(=O)[*:2])cs1; ValThz = CC(C)[C@H](N[*:1])c1nc(C(=O)[*:2])cs1; NMeF = CN[C@@H](Cc1ccccc1)C(=O)O; NMeI = CC[C@H](C)[C@H](NC)C(=O)O; Tle = CC(C)(C)[C@H](N)C(=O)O; NMeA = CN[C@@H](C)C(=O)O
Key:
[1] = Permeability of the compound at pH 7.4 at 10 uM after 10 hrs by LC-MS based PAMPA
[2] = Apparent permeability from apical to basolateral side in human Caco2 cells at 10 uM after 2 hrs by LC-MS/MS analysis; conditions: Caco-2
[3] = Retention time of the compound in isocratic acetonitrile/water by HPLC analysis; conditions: buffer
[4] = Kinetic solubility of the compound in PBS at pH 7.4
physchem = conditions: PBS

Papp at 10 h, 10 µM [1] [×10⁻⁶ cm/s] | Papp A→B at 2 h, 10 µM [2] [×10⁻⁶ cm/s] | Retention_time [3] [min] | solubility kinetic [4] [µM] | solubility thermodynamic at 48 h (physchem) [µM] | SMILES
– | – | 10.94 | – | – | CC[C@H](C)[C@@H]1NC(=O)[C@@H]2CCCN2C(=O)[C@H](Cc2ccccc2)N(C)C(=O)[C@H](C(C)(C)C)NC(=O)c2csc(n2)[C@H]([C@@H](C)CC)NC(=O)[C@@H]2CCCN2C1=O (cyclo(IP[Ile(ψThz)][Tle][NMeF]P))
4.9 | 0.3 | 1.97 | 182 (≈ 129 µg/mL) | 236 (≈ 167 µg/mL) | CC[C@H](C)[C@@H]1NC(=O)[C@@H]2CCCN2C(=O)[C@H](C(C)C)NC(=O)[C@@H]2CCCN2C(=O)[C@H](Cc2ccccc2)NC(=O)[C@H](C)NC(=O)c2csc1n2 (cyclo(AFPVP[Ile(ψThz)]))
0.2 | 0.4 | 1.02 | 285 (≈ 202 µg/mL) | – | CC[C@H](C)[C@@H]1NC(=O)[C@@H]2CCCN2C(=O)[C@H]([C@@H](C)O)NC(=O)[C@@H]2CCCN2C(=O)[C@H](Cc2ccccc2)NC(=O)[C@H](C)NC(=O)c2csc1n2 (cyclo(AFPTP[Ile(ψThz)]))
17.2 | 19.3 | 5.06 | 133 (≈ 103 µg/mL) | 111 (≈ 86.4 µg/mL) | CC[C@H](C)[C@@H]1NC(=O)[C@@H]2CCCN2C(=O)[C@H](Cc2ccccc2)N(C)C(=O)[C@H](CC(C)C)NC(=O)c2csc(n2)[C@H]([C@@H](C)CC)NC(=O)[C@@H]2CCCN2C1=O (cyclo(IP[Ile(ψThz)]L[NMeF]P))
1.5 | 21.2 | 10 | 21 (≈ 16.3 µg/mL) | 12 (≈ 9.34 µg/mL) | CC[C@H](C)[C@@H]1NC(=O)c2csc(n2)[C@H]([C@@H](C)CC)NC(=O)[C@@H]2CCCN2C(=O)[C@H]([C@@H](C)CC)NC(=O)[C@@H]2CCCN2C(=O)[C@H](Cc2ccccc2)N(C)C1=O (cyclo(I[NMeF]PIP[Ile(ψThz)]))
11 | 7.4 | 3.03 | 105 (≈ 77.3 µg/mL) | 172 (≈ 127 µg/mL) | CC[C@H](C)[C@@H]1NC(=O)[C@@H]2CCCN2C(=O)[C@H](Cc2ccccc2)N(C)C(=O)[C@H](C)NC(=O)c2csc(n2)[C@H]([C@@H](C)CC)NC(=O)[C@@H]2CCCN2C1=O (cyclo(A[NMeF]PIP[Ile(ψThz)]))
4.8 | 3.7 | 2.03 | 285 (≈ 202 µg/mL) | 205 (≈ 145 µg/mL) | CC[C@H](C)[C@@H]1NC(=O)[C@@H]2CCCN2C(=O)[C@H](Cc2ccccc2)NC(=O)[C@H](C)NC(=O)c2csc(n2)[C@H](C(C)C)NC(=O)[C@@H]2CCCN2C1=O (cyclo(AFPIP[ValThz]))
9.1 | 6.8 | 2.24 | 133 (≈ 96 µg/mL) | 296 (≈ 214 µg/mL) | CC[C@H](C)[C@@H]1NC(=O)[C@@H]2CCCN2C(=O)[C@H](C(C)C)NC(=O)[C@@H]2CCCN2C(=O)[C@H](Cc2ccccc2)N(C)C(=O)[C@H](C)NC(=O)c2csc1n2 (cyclo(A[NMeF]PVP[Ile(ψThz)]))

The remaining lines, values behind:

SMILES | Papp at 10 h, 10 µM [1] [×10⁻⁶ cm/s] | Papp A→B at 2 h, 10 µM [2] [×10⁻⁶ cm/s] | Retention_time [3] [min] | solubility kinetic [4] [µM] | solubility thermodynamic at 48 h (physchem) [µM]
CC[C@H](C)[C@@H]1NC(=O)[C@@H]2CCCN2C(=O)[C@H](Cc2ccccc2)NC(=O)[C@H](C)N(C)C(=O)c2csc(n2)[C@H]([C@@H](C)CC)NC(=O)[C@@H]2CCCN2C1=O (cyclo(FPIP[Ile(ψThz)][NMeA])) | 0.5 | 0.2 | 1.48 | 333 (≈ 245 µg/mL) | 801 (≈ 589 µg/mL)
CC[C@H](C)[C@@H]1NC(=O)[C@@H]2CCCN2C(=O)[C@H](Cc2ccccc2)NC(=O)[C@H](C(C)(C)C)NC(=O)c2csc(n2)[C@H]([C@@H](C)CC)NC(=O)[C@@H]2CCCN2C1=O (cyclo(FPIP[Ile(ψThz)][Tle])) | – | – | 8.72 | – | –
CC[C@H](C)[C@@H]1NC(=O)[C@@H]2CCCN2C(=O)[C@H]([C@@H](C)CC)N(C)C(=O)[C@@H]2CCCN2C(=O)[C@H](Cc2ccccc2)NC(=O)[C@H](C)NC(=O)c2csc1n2 (cyclo(AFP[NMeI]P[Ile(ψThz)])) | 1.3 | 0.4 | 1.79 | – | –
CC[C@H](C)[C@@H]1NC(=O)[C@@H]2CCCN2C(=O)[C@H](Cc2ccccc2)NC(=O)[C@H](C)NC(=O)c2csc(n2)[C@H](CC(C)C)NC(=O)[C@@H]2CCCN2C1=O (cyclo(AFPIP[LeuThz(4-CO)])) | 5.6 | 1.3 | 2.87 | 182 (≈ 131 µg/mL) | 35 (≈ 25.3 µg/mL)
CC(C)[C@@H]1NC(=O)c2csc(n2)[C@H](C(C)C)NC(=O)[C@@H]2CCCN2C(=O)[C@H](C(C)C)NC(=O)[C@@H]2CCCN2C(=O)[C@H](Cc2ccccc2)NC1=O (cyclo(FPVP[ValThz]V)) | 4.7 | 2.2 | 2.81 | 105 (≈ 75.8 µg/mL) | 148 (≈ 107 µg/mL)
CC[C@H](C)[C@@H]1NC(=O)[C@@H]2CCCN2C(=O)[C@H](Cc2ccccc2)NC(=O)[C@H](C)NC(=O)c2csc(n2)[C@H]([C@@H](C)CC)NC(=O)[C@@H]2CCCN2C1=O (cyclo(AFPIP[Ile(ψThz)])) | 5.3 | 1.3 | 2.77 | 147 (≈ 106 µg/mL) | 107 (≈ 77.2 µg/mL)
CC[C@H](C)[C@@H]1NC(=O)c2csc(n2)[C@H]([C@@H](C)CC)NC(=O)[C@@H]2CCCN2C(=O)[C@H]([C@@H](C)CC)NC(=O)[C@@H]2CCCN2C(=O)[C@H](Cc2ccccc2)NC1=O (cyclo(FPIP[Ile(ψThz)]I)) | 6.1 | 9.6 | 7.86 | 39 (≈ 29.8 µg/mL) | 6 (≈ 4.58 µg/mL)
CC[C@H](C)[C@@H]1NC(=O)[C@@H]2CCCN2C(=O)[C@H](Cc2ccccc2)NC(=O)[C@H](CC(C)C)NC(=O)c2csc(n2)[C@H]([C@@H](C)CC)NC(=O)[C@@H]2CCCN2C1=O (cyclo(FPIP[Ile(ψThz)]L)) | 4.7 | 10.9 | 9.13 | 39 (≈ 29.8 µg/mL) | 10 (≈ 7.64 µg/mL)
CC[C@H](C)[C@@H]1NC(=O)[C@@H]2CCCN2C(=O)[C@H](CC(C)C)NC(=O)[C@@H]2CCCN2C(=O)[C@H](Cc2ccccc2)NC(=O)[C@H](C)NC(=O)c2csc1n2 (cyclo(AFPLP[Ile(ψThz)])) | 5.3 | 0.2 | 2.19 | 133 (≈ 96 µg/mL) | 122 (≈ 88.1 µg/mL)
